Values of other authors in patent publication US20050004065A1, “Hypoxia regulated genes” (Quark Biotech, Inc., priority 1998, published 2005).

Tested on: neuron cells
Conditions: in vitro; previously shown

| Structure (SMILES) | toxicity for neuron cells |
| --- | --- |
| CC(C)C(O)CC[C@@H](C)[C@H]1CC[C@H]2[C@@H]3CC=C4C[C@@H](O)CC[C@]4(C)[C@H]3CC[C@]12C (some centres unmarked) [24-hydroxycholesterol] | toxic for neuron cells in vitro |
| C[C@H](CCCC(C)(C)O)[C@H]1CC[C@H]2[C@@H]3CC=C4C[C@@H](O)CC[C@]4(C)[C@H]3CC[C@]12C [25-hydroxycholesterol] | toxic for neuron cells in vitro |
